# Patent US10668168B2, “Method for removing weakly bound functional moieties from cell targeting conjugates” (priority 2015, dated 2020)
# Tested on: NBD-4Py-Lx-trastuzumab conjugate
# Experiment: Stripping efficiency of S- and N-donors: released NBD label from trastuzumab conjugate
# Assay type: physicochemical
# Conditions: agent 10 mM final, 37 °C, 30 minutes stripping
# Description: The percentage of released NBD label (excitation and emission wavelength of 485 nm and 535 nm, respectively) was determined spectrophotometrically. The conjugation mixture was precipitated with 2 volume equivalents acetonitrile followed by centrifugation of the formed suspension (5 minutes, 14K rpm). By measuring the fluorescence of the supernatant, the percentage of released NBD label was determined.
# NBD-4Py-Lx-Cl (133 microliters, 5 mM in 20 mM NaCl, 20 equiv.) was added to a solution of trastuzumab, used in its commercial formulation, (238 microliters, 21 mg/ml) and HEPES buffer (12.3 microliters, pH 7.47, 20 mM final concentration). The mixture was placed in a THERMOMIXER® at 37° C. for 4 hours, followed by purification using a prewashed PD10 column which was eluted with 0.9% NaCl. The purified conjugate was incubated with PBS or the S and N-donors as listed above (10 mM final concentration) in a THERMOMIXER® at 37° C. for 30 minutes. With size exclusion chromatography conjugation was clearly observed. Furthermore no aggregation was observed. The NBD/mAb ratio of all the conjugates were between 4.0 and 4.2.
# The percentage of the released NBD label was determined as described in Example B.
row,SMILES,Released label (%)
1,N[C@@H](Cc1c[nH]cn1)C(=O)O [Histidine],5.9%
2,CSCC[C@H](NC(C)=O)C(=O)O [N-acetyl-1-methionine],12.2%
3,"O=S([O-])([O-])=S.[Na+].[Na+] [NaSTS, sodium thiosulfate]",52.4%
4,"N#C[S-].[K+] [KSCN, potassium thiocyanate]",35.9%
5,N[C@@H](CS)C(=O)O [L-cysteine],36.4%
